We go through four compounds from patent US20050119240A1, “1-methyl-20-epi-vitamin d derivative” (priority 2000, published 2005).

Molecules are shown by their SMILES.

For the assay, the target named is T1, Bovine thymus 1α,25-dihydroxyvitamin D3 receptor (VDR) (Bos taurus, UniProt Q28037).
T1 sequence (Q28037 1-426): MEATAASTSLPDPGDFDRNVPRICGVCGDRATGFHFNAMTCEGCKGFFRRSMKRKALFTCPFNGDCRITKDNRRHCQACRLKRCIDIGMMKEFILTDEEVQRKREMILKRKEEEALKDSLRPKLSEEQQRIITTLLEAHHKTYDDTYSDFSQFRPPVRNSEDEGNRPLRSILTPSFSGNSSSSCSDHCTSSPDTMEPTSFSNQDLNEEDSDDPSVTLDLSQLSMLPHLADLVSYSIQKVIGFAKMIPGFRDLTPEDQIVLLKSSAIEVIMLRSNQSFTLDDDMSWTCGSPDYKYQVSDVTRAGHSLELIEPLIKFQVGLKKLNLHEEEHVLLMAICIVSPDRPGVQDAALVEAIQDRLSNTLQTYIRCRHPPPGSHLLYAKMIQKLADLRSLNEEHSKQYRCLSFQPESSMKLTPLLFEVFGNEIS
The note with it: relative value with that of 1α,25-dihydroxyvitamin D3 taken as 100; [3H]-1α,25-dihydroxyvitamin D3 0.1 nM, incubation overnight at 4° C.
In turn, `C=C1/C(=C\C=C2/CCC[C@]3(C)[C@@H]([C@@H](C)CCCC(C)(C)O)CC[C@@H]23)C[C@H](O)C[C@]1(C)O` [Compound 4, (5Z,7E)-(1S,3S,20S)-1Methyl-9,10-seco-5,7,10(19)-cholestatriene-1,3,25-triol] showed a VDR binding properties of 1.

Consider `C=C1/C(=C\C=C2/CCC[C@@]3(C)C2CCC3[C@@H](C)CCCC(C)(C)O)C[C@@H](O)C[C@]1(C)O` (stereo partly drawn) [Compound 6, (5Z,7E)-(1S,3R,20S)-1-Methyl-9,10-seco-5,7,10(19)-cholestatriene-1,3,25-triol], for which the VDR binding properties came to 1.

The compound `C=C1C(=CC=C2CCCC3(C)C2CCC3C(C)CCCC(C)(C)O)CC(O)CC1(C)O` [Compound 9, (5Z,7E)-(1R,3R,20S)-1-Methyl-9,10-seco-5,7,10(19)-cholestatriene-1,3,25-triol] yielded a VDR binding properties of 0.017.

In turn, `C=C1/C(=C\C=C2/CCC[C@@]3(C)C2CCC3[C@@H](C)CCCC(C)(C)O)C[C@H](O)C[C@@]1(C)O` (stereo partly drawn) [Compound 11, (5Z,7E)-(1R,3S,20S)-1-Methyl-9,10-seco-5,7,10(19)-cholestatriene-1,3,25-triol] showed a VDR binding properties of 0.004.
